Source: patent publication US20230181564A1, “Potent Tetrahydroquinolone Eliminates Apicomplexan Parasites” (The University of Chicago, priority 2020, published 2023)
Values after ≈ are worked out from the molar mass of the structure shown.

What was measured:
[1] = test system: T. gondii Me49 strain; experiment: Established chronic Me49 infection in Balb/C mice, brain cysts; format: in vivo, Toxoplasma gondii; details: treatment from day 30 after Me49 infection, IP daily for 14 days; p<0.03, p<0.01
Method: In separate experiments, Balb/C mice were infected IP with 20×10^3 T. gondii Me49 strain tachyzoites. In these separate studies of mice with established chronic infection, after 30 days, IP treatment with JAG21 was begun each day for 14 days. JAG21 was dissolved in DMSO and administered IP in a total volume of 0.05 mL. In experiments when tafenoquine was administered alone or with JAG21 in some groups 3 mg/kg tafenoquine was administered once on day −1 from when JAG21 treatment was initiated. Cysts in brain were quantitated on day 30, 16 days after discontinuing JAG21. Immunoperoxidase staining was performed. Parasite burden was quantitated in two ways. The first was using a positive pixel count algorithm of Aperio ImageScope software. Positive pixels were normalized to tissue area (mm^2). Briefly, automated quantitation was done by counting positive pixels per square area. The entire brain in one section was scanned for each mouse. The Cyst burden was quantitated as units of positive pixels per mm2. The average±S.E.M. numbers of mm2 per slide quantitated was 30.2±1.6 square mm per mouse for this quantification. […] Cysts on each slide for each condition in two biological replicate experiments were also quantitated by 2 separate observers independently and results compared with automated counting, separately.

[2] = Kinetic/aqueous solubility in PBS pH 7.4; format: physicochemical
Method: PBS Sol/Toxicity pH7.4 refers to solubility of the compound in Phosphate Buffered Saline (PBS) at pH7.4. […] Parasites were RH-YFP expressing tachyzoites (Tachy) and EGS (Brady) strains. Studies of effects of inhibitors on HFF or on T.gondii tachyzoites were performed with triplicate wells in at least two biological replicate experiments. Studies of effects on bradyzoites were performed at least twice in at least two biological replicate experiments. Compounds with much less inhibition of mammalian than T. gondii cytochrome bc in the saffarine enzyme assay (indicated by **) provide potential to further develop compounds, if unanticipated toxicity occurs from JAG21.
(§1) Structure Activity Relationship (SAR) and comparison of effect on T.gondii and HFF enzyme activity. […] The MDCK-MDR1 Permeability Assay was also performed. […] These were measured by Chem Partners.

[3] = test system: T. gondii (Prugneaud strain expressing luciferase) tachyzoites; experiment: Acute infection with Prugneaud luciferase tachyzoites in Balb/C mice (IVIS, brain cysts); format: in vivo, Toxoplasma gondii
Method: IVIS. Balb/C mice were infected intraperitoneally (IP) with 20×10^3 T. gondii (Prugneaud strain expressing luciferase) tachyzoites. Treatment began 2 hours later with JAG21 (5 mg/kg) which was dissolved in DMSO, administered IP in a total volume of 0.05 ml. Mice were imaged every second day starting on day 4 post infection using an IVIS Spectrum (Caliper Life Sciences) for […], with medium binning, 20 minutes post injection with 150 mg/kg of D-luciferin potassium salt solution.
Brain cysts. Brain cysts were searched for in paraffin imbedded tissue of the surviving Prugneaud strain infected treated Balb/C mice in the IVIS study, 30 days after infection which was 16 days after treatment had been discontinued. All treated mice had survived. There were no surviving untreated mice in those experiments.

[4] = test system: T. gondii EGS strain bradyzoites; experiment: In vitro challenge assay for EGS strain bradyzoites in HFF; format: cell-based, Toxoplasma gondii; details: 500 nM
Method: PBS Sol/Toxicity pH7.4 refers to solubility of the compound in Phosphate Buffered Saline (PBS) at pH7.4. […] Tachy/Brady IC50 was determined in studies in which cultures of parasites in HFF were treated with varying concentrations of the compound and there was 50% inhibition of the replication (number) of parasites. Parasites were RH-YFP expressing tachyzoites (Tachy) and EGS (Brady) strains. Studies of effects of inhibitors on HFF or on T.gondii tachyzoites were performed with triplicate wells in at least two biological replicate experiments. Studies of effects on bradyzoites were performed at least twice in at least two biological replicate experiments. Compounds with much less inhibition of mammalian than T. gondii cytochrome bc in the saffarine enzyme assay (indicated by **) provide potential to further develop compounds, if unanticipated toxicity occurs from JAG21. […]
Cells were fixed using 4% paraformaldehyde and stained with Fluorescein-labeled Dolichos Biflorus Agglutinin, DAPI, and BAG1. […] Effects of compounds were quantitated by counting cysts in controls and treated cultures. Dolichos staining delimited structures and single organisms that remained were counted in a representative field of view. This was then multiplied by a factor determined by the total area of the cover slip in order to estimate the number of cysts and organisms in each condition. […]

[5] = target: hERG (Homo sapiens, UniProt Q12809); experiment: hERG liability; format: in vitro ADME
Sequence of hERG (Q12809 whole entry): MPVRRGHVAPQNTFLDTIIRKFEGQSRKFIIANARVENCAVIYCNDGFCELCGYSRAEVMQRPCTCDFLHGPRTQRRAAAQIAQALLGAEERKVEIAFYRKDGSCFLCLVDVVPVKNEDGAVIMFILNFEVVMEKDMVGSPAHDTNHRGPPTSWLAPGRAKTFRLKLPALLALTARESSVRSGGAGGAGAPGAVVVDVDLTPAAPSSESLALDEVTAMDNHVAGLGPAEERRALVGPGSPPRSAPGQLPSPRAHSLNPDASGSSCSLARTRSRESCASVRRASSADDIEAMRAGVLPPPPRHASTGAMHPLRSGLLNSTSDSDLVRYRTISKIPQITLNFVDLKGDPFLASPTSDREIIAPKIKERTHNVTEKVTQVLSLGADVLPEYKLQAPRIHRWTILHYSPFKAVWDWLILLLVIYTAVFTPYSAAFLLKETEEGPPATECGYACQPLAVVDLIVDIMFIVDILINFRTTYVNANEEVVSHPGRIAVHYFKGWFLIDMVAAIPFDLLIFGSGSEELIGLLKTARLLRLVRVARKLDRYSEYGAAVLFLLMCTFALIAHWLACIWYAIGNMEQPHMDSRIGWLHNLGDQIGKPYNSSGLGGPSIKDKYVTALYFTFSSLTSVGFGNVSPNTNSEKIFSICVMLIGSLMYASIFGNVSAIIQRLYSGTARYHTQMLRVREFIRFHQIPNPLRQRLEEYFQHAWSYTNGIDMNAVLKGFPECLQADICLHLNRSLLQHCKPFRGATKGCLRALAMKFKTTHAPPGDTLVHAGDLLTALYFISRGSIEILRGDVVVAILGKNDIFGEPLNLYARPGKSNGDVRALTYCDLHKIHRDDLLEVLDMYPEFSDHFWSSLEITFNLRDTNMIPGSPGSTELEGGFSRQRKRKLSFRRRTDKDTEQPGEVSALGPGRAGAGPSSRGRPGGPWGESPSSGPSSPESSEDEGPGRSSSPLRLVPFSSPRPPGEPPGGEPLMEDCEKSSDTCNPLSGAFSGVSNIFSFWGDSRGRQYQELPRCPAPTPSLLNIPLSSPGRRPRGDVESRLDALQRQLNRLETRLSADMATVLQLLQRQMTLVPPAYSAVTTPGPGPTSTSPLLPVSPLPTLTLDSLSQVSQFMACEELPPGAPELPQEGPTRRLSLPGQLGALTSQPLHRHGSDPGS
Method: as §1

In the case of `Cc1[nH]c2c(c(=O)c1-c1ccc(Oc3ccc(OC(F)(F)F)cc3)cc1)CCCC2` [JAG021, 2-methyl-3-(4-(4-(trifluoromethoxy)phenoxy)phenyl)-5,6,7,8-tetrahydroquinolin-4-one], the “Normal appearing cysts, free organisms and immunoperoxidase stained cysts in brain” value [1] is reported as “marked, statistically significant reduction”, the solubility ([2]; amorphous compounds) is reported as 7 µM (≈ 2.91 µg/mL) and the “Solubility of the microcrystalline form” value ([2]; microcrystalline form) is reported as 3.5 µM. The “PBS Sol pH7.4” value ([2]; solubility in Phosphate Buffered Saline pH 7.4, first value of cell) was 7.07 μM, the “Luciferase tachyzoites in luminescence studies” value ([3]; 5 mg/kg/day IP) was “eliminates illness and T. gondii Type II Prugneaud luciferase tachyzoites completely” and the Cysts in brains ([3]; 5 mg/kg/day for 14 days from start of infection, brains evaluated at 30 days) was “no cysts being found”. The “Survival of infected mice” value ([3]; Balb/C mice, JAG21 5 mg/kg IP for 14 days) was 100%, the “EGS bradyzoites in treated cultures” value [4] was “not seen” and the hERG liability [5] was “no hERG liability”.
